The NIST ThermoML archive (doi:10.1016/j.fluid.2016.09.021)

Conditions: Liquid, Vibrating tube method

c1ccccc1 [benzene]
mass density [kg/m3]
Conditions	293 K	313 K	333 K	353 K	373 K	393 K	413 K	433 K	448 K	468 K
2100 kPa	877.4	857	835.1	813.1	790.7	767.6	743	716.7	696	666.9
3100 kPa	878.1	857.8	836	814.2	792.1	769.4	745.1	719.4	699.2	670.7
4100 kPa	878.8	858.7	837	815.4	793.4	770.9	747	721.8	702.1	674.3
5000 kPa	879.6	859.6	838	816.5	794.7	772.5	748.8	724	704.8	677.8
10100 kPa	883.4	863.9	842.7	822.3	801.4	780	758	735.4	717.8	693.2
20000 kPa	890.4	871.5	851.8	832.3	812.9	793	773.2	753	738	717
30000 kPa	896.9	878.7	859.4	841.2	823.1	804.5	786.2	767.8	754.2	735.1
40000 kPa	902.9	885.2	867	849.5	832.3	814.6	797.5	780.3	767.8	750.3
50000 kPa	908.6	891.6	874.2	857	840.7	824	807.8	791.6	779.8	763.6
60000 kPa	914	897.5	880.8	864.3	848.2	832.6	817.2	801.7	790.6	775.5
70000 kPa	919.6	902.9	886.7	871.2	855.7	841	825.8	811	800.3	786.1

CCCCCCCCCCCC [dodecane]
mass density [kg/m3]
Conditions	293 K	313 K	333 K	353 K	373 K	393 K	413 K	433 K	448 K	468 K
2100 kPa	752.3	737.7	722.8	708.1	693.2	678.1	662.8	646.8	634.6	617.8
3100 kPa	752.9	738.5	723.6	709	694.3	679.2	664.2	648.5	636.7	619.9
4100 kPa	753.6	739.2	724.5	710	695.3	680.4	665.6	650	638.2	622
5000 kPa	754.2	739.9	725.3	710.9	696.3	681.6	666.9	651.6	640	624.1
10100 kPa	757.5	743.4	729.4	715.6	701.5	687.5	673.7	659.5	648.5	634.1
20000 kPa	763.5	750.1	736.6	723.9	710.8	697.8	685.1	672	662.4	649.5
30000 kPa	769	756.3	743.4	731.3	718.7	706.6	694.9	682.8	674	661.8
40000 kPa	774.3	761.8	749.6	737.7	726	714.7	703.6	692.1	684	672.8
50000 kPa	779	767.1	755.3	744.1	733.1	722.2	711.4	700.6	692.9	682.6
60000 kPa	783.8	772.1	760.8	750.1	739.4	728.7	718.7	708.3	701	691
69900 kPa	788	777	766	755.6	745.2	735.1	725.4	715.6	708.3	698.9
79900 kPa	792.5	781.6	770.9	760.7	750.7	741.1	731.7	722.1	715.3	706.3
89900 kPa	796.7	786.1	775.7	765.7	756	746.8	737.3	728.3	721.9	712.9
99900 kPa	800.8	790.4	780.1	770.5	761	752.2	743.2	734.3	727.9	719.2
109900 kPa	804.8	794.6	784.6	775.1	765.9	757.2	748.5	739.8	733.5	725.1
119900 kPa	808.7	798.7	788.8	779.6	770.6	762	753.7	745.1	739	731
129900 kPa	812.4	802.7	793.2	784	775.1	766.8	758.5	750.3	744.2	736.3
134900 kPa	814.4	804.6	795.1	786	777.4	769	760.9	752.7	746.7	738.9
137400 kPa	815.2	805.4	796	787	778.5	770.2	762	753.9	747.9	740.2
